Among the data in US6248736A, “4-oxo-1,4-dihydro-3-quinolinecarboxamides as antiviral agents” (Pharmacia & Upjohn Company, priority 1999, dated 2001) are IC50 values, retold here.

Read-outs that look alike come from different tables or passages of the source.

The target of one experiment is T1, HCMV polymerase (Human cytomegalovirus, UniProt P08546).
T1 construct: made in house; host or cells: recombinant baculovirus-infected SF-9 cells
The experiment is described as follows: biochemical. As for the experimental part:
(§1) The HCMV polymerase assay is performed using a scintillation proximity assay (SPA) as described in several references, such as N. D. Cook, et al., Pharmaceutical Manufacturing International, pages 49-53 (1992); K. Takeuchi, Laboratory Practice, September issue (1992); U.S. Pat. No. 4,568,649 (1986); which are incorporated by reference herein. Reactions are performed in 96-well plates. The assay is conducted in 100 μl volume with 5.4 mM HEPES (pH 7.5), 11.7 mM KCl, 4.5 mM MgCl2, 0.36 mg/ml BSA, and 90 nM ^3 H-dTTP. Assays are run with and without CHAPS, (3-[(3-Cholamidopropyl)-dimethylammonio]-1-propane-sulfonate) at a final concentration of 2 mM. HCMV polymerase is diluted in enzyme dilution buffer containing 50% glycerol, 250 mM NaCl, 10 mM HEPES (pH 7.5), 100 μg/ml BSA, and 0.01% sodium azide. The HCMV polymerase, which is expressed in recombinant baculovirus-infected SF-9 cells and purified according to literature procedures, is added at 10% (or 10 μl) of the final reaction volume, i.e., 100 μl. Compounds are diluted in 50% DMSO and 10 μl are added to each well. Control wells contain an equivalent concentration of DMSO. Unless noted otherwise, reactions are initiated via the addition of 6 nM biotinylated poly(dA)-oligo(dT) template/primer to reaction mixtures containing the enzyme, substrate, and compounds of interest. Plates are incubated in a 25 C or 37 C H2 O bath and terminated via the addition of 40 μl/reaction of 0.5 M EDTA (pH 8) per well. Reactions are terminated within the time-frame during which substrate incorporation is linear and varied depending upon the enzyme and conditions used, i.e., 30 min. for HCMV polymerase. Ten μl of streptavidin-SPA beads (20 mg/ml in PBS/10% glycerol) are added following termination of the reaction. Plates are incubated 10 min. at 37 C, then equilibrated to room temperature, and counted on a Packard Topcount. Linear regressions are performed and IC50 's are calculated using computer software.
A modified version of the above HCMV polymerase assay is performed as described above, but with the following changes: Compounds are diluted in 100% DMSO until final dilution into assay buffer. In the previous assay, compounds are diluted in 50% DMSO. 4.5 mM dithiotherotol (DTT) is added to the polymerase buffer. […] Other viral polymerase assays are performed using procedures similar to those described above.

For a further experiment, the target named is HSV polymerase (Human herpesvirus 1, UniProt P04293). The experiment is described as follows: HSV polymerase assay (procedure similar to the HCMV polymerase assay). It counts as biochemical. As for the experimental part: as §1, with “software. […]” for “software.”
For the next experiment, the target named is VZV polymerase (Varicella-zoster virus, UniProt P09252). The experiment is described as follows: VZV polymerase assay (procedure similar to the HCMV polymerase assay). It counts as biochemical. As for the experimental part: as §1, with “software. […]” for “software.”
[1] abbreviates: HCMV polymerase, modified SPA, compounds in 100% DMSO, 4.5 mM DTT added.

What is called IC50 is the midpoint of a concentration-inhibition curve. Read a low IC50 as higher potency.

T1 sequence (P08546 whole entry): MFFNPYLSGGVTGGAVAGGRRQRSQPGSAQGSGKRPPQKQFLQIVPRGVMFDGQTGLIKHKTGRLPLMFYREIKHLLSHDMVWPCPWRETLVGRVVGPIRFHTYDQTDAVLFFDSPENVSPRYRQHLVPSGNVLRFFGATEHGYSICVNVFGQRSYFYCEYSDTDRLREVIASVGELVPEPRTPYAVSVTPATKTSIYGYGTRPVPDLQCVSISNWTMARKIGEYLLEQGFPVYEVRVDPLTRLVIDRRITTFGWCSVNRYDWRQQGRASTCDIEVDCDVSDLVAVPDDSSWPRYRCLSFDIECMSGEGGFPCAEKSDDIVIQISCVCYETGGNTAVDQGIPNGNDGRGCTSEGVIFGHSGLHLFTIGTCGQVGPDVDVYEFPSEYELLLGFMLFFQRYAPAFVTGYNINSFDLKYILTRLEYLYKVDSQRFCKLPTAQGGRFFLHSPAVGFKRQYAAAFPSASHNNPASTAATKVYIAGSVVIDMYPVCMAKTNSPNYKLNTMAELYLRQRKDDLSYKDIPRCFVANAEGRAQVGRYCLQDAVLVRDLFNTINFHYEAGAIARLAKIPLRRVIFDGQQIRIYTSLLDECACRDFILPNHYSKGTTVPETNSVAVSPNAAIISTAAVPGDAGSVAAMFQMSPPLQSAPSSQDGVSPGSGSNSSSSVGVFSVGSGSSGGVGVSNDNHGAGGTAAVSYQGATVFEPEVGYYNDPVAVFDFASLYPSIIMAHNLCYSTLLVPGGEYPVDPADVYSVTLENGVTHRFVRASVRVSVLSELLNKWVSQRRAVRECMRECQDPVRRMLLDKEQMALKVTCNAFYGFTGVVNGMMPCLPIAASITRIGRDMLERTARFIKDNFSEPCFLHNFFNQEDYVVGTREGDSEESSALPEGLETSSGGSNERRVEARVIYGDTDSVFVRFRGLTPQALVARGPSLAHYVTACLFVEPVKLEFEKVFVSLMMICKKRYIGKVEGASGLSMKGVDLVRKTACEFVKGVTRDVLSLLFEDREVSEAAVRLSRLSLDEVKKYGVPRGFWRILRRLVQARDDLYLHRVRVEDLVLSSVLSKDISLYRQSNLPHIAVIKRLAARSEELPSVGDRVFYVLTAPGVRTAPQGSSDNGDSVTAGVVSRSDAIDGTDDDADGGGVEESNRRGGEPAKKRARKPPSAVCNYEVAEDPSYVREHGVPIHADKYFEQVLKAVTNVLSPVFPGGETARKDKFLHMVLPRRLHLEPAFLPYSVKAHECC
Chain of VZV polymerase (P09252 whole entry): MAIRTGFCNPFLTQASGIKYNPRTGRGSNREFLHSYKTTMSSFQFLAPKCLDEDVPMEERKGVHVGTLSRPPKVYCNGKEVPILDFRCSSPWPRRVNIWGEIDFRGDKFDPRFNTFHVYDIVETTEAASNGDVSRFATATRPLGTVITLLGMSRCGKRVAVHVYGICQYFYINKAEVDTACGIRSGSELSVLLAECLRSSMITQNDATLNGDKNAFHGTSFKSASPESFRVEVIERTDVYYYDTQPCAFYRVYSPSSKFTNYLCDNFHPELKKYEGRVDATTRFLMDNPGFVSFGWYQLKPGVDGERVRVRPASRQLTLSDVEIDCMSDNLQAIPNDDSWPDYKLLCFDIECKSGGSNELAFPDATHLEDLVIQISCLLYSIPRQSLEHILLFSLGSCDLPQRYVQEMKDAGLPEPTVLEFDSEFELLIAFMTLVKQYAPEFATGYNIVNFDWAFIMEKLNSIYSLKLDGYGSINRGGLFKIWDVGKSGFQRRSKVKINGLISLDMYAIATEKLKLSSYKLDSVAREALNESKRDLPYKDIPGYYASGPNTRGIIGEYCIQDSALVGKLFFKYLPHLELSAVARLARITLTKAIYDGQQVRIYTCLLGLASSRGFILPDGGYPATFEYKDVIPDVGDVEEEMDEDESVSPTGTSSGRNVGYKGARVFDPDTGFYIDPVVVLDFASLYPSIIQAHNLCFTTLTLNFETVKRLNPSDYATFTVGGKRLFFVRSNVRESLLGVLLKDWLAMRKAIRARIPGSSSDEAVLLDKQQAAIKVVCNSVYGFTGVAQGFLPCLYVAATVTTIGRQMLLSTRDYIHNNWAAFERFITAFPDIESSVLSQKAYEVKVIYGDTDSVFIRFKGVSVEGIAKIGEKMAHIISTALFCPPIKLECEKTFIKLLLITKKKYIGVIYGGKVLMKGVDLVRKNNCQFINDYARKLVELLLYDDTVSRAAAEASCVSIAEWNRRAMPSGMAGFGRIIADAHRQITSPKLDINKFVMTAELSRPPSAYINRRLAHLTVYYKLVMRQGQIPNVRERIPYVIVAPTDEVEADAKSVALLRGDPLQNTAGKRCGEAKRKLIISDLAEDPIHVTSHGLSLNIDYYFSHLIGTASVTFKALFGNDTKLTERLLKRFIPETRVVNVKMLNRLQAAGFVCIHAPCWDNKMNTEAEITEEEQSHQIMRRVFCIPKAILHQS
Chain of HSV polymerase (P04293 whole entry): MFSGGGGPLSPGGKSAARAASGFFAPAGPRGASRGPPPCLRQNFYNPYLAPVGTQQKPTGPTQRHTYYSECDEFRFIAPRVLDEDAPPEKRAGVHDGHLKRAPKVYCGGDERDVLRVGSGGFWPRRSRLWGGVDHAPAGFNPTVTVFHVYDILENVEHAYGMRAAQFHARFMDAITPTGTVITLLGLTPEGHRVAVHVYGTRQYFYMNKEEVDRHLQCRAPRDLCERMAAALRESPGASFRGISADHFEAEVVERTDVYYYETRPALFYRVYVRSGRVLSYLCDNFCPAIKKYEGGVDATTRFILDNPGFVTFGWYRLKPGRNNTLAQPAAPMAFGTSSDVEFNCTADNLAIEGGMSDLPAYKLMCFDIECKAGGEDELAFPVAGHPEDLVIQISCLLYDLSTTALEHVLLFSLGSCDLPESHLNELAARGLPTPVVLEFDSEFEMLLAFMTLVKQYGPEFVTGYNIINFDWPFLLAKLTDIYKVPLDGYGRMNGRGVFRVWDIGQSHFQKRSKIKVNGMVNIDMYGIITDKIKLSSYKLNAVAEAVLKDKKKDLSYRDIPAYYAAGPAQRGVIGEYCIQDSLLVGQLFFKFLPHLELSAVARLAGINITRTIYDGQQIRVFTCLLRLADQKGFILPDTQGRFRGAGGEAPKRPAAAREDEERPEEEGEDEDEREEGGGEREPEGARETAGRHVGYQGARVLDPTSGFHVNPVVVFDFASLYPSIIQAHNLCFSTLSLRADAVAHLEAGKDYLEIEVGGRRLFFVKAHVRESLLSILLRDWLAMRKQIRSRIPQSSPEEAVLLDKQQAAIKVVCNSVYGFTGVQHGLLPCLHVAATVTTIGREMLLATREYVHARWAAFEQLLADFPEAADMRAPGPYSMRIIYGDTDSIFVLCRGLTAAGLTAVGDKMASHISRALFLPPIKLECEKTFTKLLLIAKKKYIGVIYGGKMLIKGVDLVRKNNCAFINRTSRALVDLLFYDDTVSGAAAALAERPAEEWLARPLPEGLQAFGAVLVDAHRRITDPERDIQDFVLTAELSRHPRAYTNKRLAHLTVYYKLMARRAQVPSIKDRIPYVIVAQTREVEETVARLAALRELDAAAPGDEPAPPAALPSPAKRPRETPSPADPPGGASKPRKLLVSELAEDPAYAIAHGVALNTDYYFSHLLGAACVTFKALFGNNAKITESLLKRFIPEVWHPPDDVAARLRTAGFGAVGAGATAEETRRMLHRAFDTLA

As for `Cn1cc(C(=O)NCc2ccc(Cl)cc2)c(=O)c2cc(C(C)(C)CCO)ccc21` [Example 1, N-(4-chlorobenzyl)-6-(3-hydroxy-1,1-dimethylpropyl)-1-methyl-4-oxo-1,4-dihydro-3-quinolinecarboxamide], the IC50 against HCMV polymerase (setting [1]) is 500 nM; against HSV polymerase it was 1800 nM; against VZV polymerase, 2000 nM.

Take `Cn1cc(C(=O)NCc2ccc(Cl)cc2)c(=O)c2cc(CO)ccc21` [Example 2, N-(4-Chlorobenzyl)-6-(hydroxymethyl)-1-methyl-4-oxo-1,4-dihydro-3-quinolinecarboxamide]: the IC50 on HCMV polymerase (setting [1]) came to 7800 nM.

Turning to `Cn1cc(C(=O)NCc2ccc(Cl)cc2)c(=O)c2cc(CN3CCOCC3)ccc21` [Example 3, N-(4-Chlorobenzyl)-1-methyl-6-(4-morpholinylmethyl)-4-oxo-1,4-dihydro-3-quinolinecarboxamide], the IC50 was found to be 400 nM against HCMV polymerase (setting [1]), 740 nM against HSV polymerase and 440 nM against VZV polymerase.

At HCMV polymerase (setting [1]), `O=C(NCc1ccc(Cl)cc1)c1cn(CCO)c2ccc(CCCO)cc2c1=O` [Example 4, N-(4-Chlorobenzyl)-1-(2-hydroxyethyl)-6-(3-hydroxypropyl)-4-oxo-1,4-dihydro-3-quinolinecarboxamide] displayed an IC50 of 370 nM.

On to `Cn1cc(C(=O)NCc2ccc(Cl)cc2)c(=O)c2cc(CCCO)ccc21` [Example 5, N-(4-Chlorobenzyl)-6-(3-hydroxypropyl)-1-methyl-4-oxo-1,4-dihydro-3-quinolinecarboxamide], for which the IC50 on HCMV polymerase (setting [1]) turned out to be 480 nM; against HSV polymerase, 320 nM; at VZV polymerase it was 410 nM.

`CC(C)(C)n1cc(C(=O)NCc2ccc(Cl)cc2)c(=O)c2cc(CCCO)ccc21` [Example 6, 1-(tert-Butyl)-N-(4-chlorobenzyl)-6-(3-hydroxypropyl)-4-oxo-1,4-dihydro-3-quinolinecarboxamide] registered an IC50 against HCMV polymerase of 2800 nM.

`Cn1cc(C(=O)NCc2ccc(Cl)cc2)c(=O)c2cc(CN3CCSCC3)ccc21` [Example 7, N-(4-Chlorobenzyl)-1-methyl-4-oxo-6-(4-thiomorpholinyl-methyl)-1,4-dihydro-3-quinolinecarboxamide] registered a concentration for half-maximal inhibition (IC50) at HCMV polymerase (setting [1]) of 2500 nM.

The compound `Cn1cc(C(=O)NCc2ccc(Cl)cc2)c(=O)c2cc(CN3CCS(=O)(=O)CC3)ccc21` [Example 8, N-(4-chlorobenzyl)-6-[(1,1-dioxo-1',4-thiazinan-4-yl)methyl]-1-methyl-4-oxo-1,4-dihydro-3-quinolinecarboxamide] returned a half-maximal inhibitory concentration (IC50) on HCMV polymerase (setting [1]) of 2600 nM.

On HCMV polymerase (setting [1]), `Cn1cc(C(=O)NCc2ccc(Cl)cc2)c(=O)c2cc(CN3CC[S+]([O-])CC3)ccc21` [Example 9, N-(4-chlorobenzyl)-1-methyl-4-oxo-6-[(1-oxo-1',4-thiazinan-4-yl)methyl]-1,4-dihydro-3-quinolinecarboxamide] gave an IC50 of 4700 nM.

Compound `Cn1cc(C(=O)NCc2ccc(Cl)cc2)c(=O)c2cc(CN3CCOCC3)cc(F)c21` [Example 10, N-(4-chlorobenzyl)-8-fluoro-1-methyl-6-(4-morpholinylmethyl)-4-oxo-1,4-dihydro-3-quinolinecarboxamide] yielded an IC50 on HCMV polymerase of 1000 nM.
